“Also recorded” adds a separate entry of the source. Like-named read-outs stand apart in the source and are kept apart here.
Legend:
WT (Col-0) Arabidopsis [1] = assay: Root elongation / root growth-rate inhibition on MS with the substance, wild type; format: in vivo, Arabidopsis thaliana
Source text: (§1) The Arabidopsis strains used were all in the Columbia-0 (Col-0) background. The gain of function lines psx00478 and psx08098 containing pBIG2113SF binary vector, expressing a single cDNA under 35S promoter, were ordered from FOX library (Takanari I. et al., 2006. ibid). Transgenic lines were generated using pBINPLUS (van Engelen F A et al., 1995. Transgenic Research 4, 288-290), in which AT2G19750 gene was cloned downstream of the 35S promoter, and transformed to WT Col-0 via Agrobacterium cv3101 mediated transformation. The presence of the transgene was confirmed by PCR with specific primers for S30. Seeds were cultivated in Petri plates using medium containing 0.8% agar, half-strength Murashige and Skoog salts (MS), and 1% sucrose, pH 5.7. The Petri plates were placed in chambers at 22° C. under light/dark conditions of 16 h white light at 75 mol m^2 sec^−1 and 8 h darkness, at 55% relative humidity. For root phenotype experiments, plates were placed vertically in the chambers.
To calculate the percentage of growth inhibition, seeds were germinated on MS containing the following concentrations of I3C: 0, 50, 100, 200, 300, 400, 500 and 750 μM. The root length of the seedlings was measured at days 3, 4, 5, 7 and 10. To calculate the percentage of growth inhibition, the slope of the regression lines for each concentration was used in the next equation: […]
To calculate the degree of tolerance to I3C, growth rates of WT and the I3CT1 strains were determined for increasing concentrations of I3C. Root length was measured at several time points over increasing I3C concentrations (FIG. 3). The growth rate of the WT and the I3CT1 transgenic lines was similar on MS; however, a growth rate of 3 and 2.3 times faster was observed on 400 μM I3C for the transgenic lines I3CT1^2 and I3CT1^8098 respectively. […] However, the growth rate of the WT was inhibited by 50% at about 50 μM while the growth rate of the I3CT1^2 and I3CR1^8098 transgenic lines was inhibited by 50% only when the I3C concentration was 300 μM and 200 μM respectively.
(§2) To test if overexpression of S30 causes tolerance specifically to I3C, or rather causes general tolerance to external chemical stress, root growth was tested with the addition of three groups of molecules to the growth medium: two subcategories of indole derivates: 1. Breakdown products of indol-3-acetaldoxime such as I3C, indol-3-acetic acid (IAA), and 3—Indoleacetonitril (IAN); and 2. breakdown products of I3C such as 3, 3Diindolylmethane (DIM), indole-3-carboxaldehyde (I3xA), and methyl Indole 3-carboxylate (MI3Cx). The third group contains benzoxazinoids: 2-Benzoxazolinon (BOA) and 6-Methoxy-2-benzoxazolinone (mBOA). Benzoxanoids are chemically unrelated to I3C, but with similar function of plant defense in gramineae (FIG. 4A). WT and the I3CT1 transgenic strains were assayed for root growth on 50% and 90% inhibition concentrations (IC) of the above molecules (Table 3).

I3CT1 transgenic strains = assay: Root growth of I3CT1 on 50% and 90% inhibition concentrations of plant defense molecules; format: in vivo, Arabidopsis thaliana; settings: FIG. 4B
Protocol: FIG. 4A: Plant defense molecules assayed: Breakdown products of indol-3-acetaldoxime (upper left panel), Breakdown products of I3C (lower panel), and benzoxazinoids (right panel). FIG. 4B: I3CT1 and WT were grown on 50% and 90% inhibition concentrations of the chemicals shown in μM. Data represent mean±SE.
as §2

WT (Col-0) Arabidopsis [2] = settings: 400 μM I3C; cited from earlier work
WT (Col-0) Arabidopsis [3] = assay: Root length on I3C, IAA and mixtures (auxin antagonism), WT; format: in vivo, Arabidopsis thaliana
Protocol: I3CT1^2, I3CT1^8098 (FIG. 10A, designated as ICT1) and WT (FIG. 10B) plants were grown on three concentrations of I3C (50, 200, 500 μM), three concentrations of IAA (50, 200, 500 nM) and mixtures between the two. Root length was measured, and the mean root length of the transgenic lines I3CT1^2, I3CT1^8098 was calculated (presented as “I3CT1”). Three-way ANOVA was performed after SQRT transformation to obtain a normal distribution. FIG. 10C: The model of inhibition.
It was previously shown that I3C acts as an auxin antagonist on TIR1 (Katz et al., 2015b, ibid).

[4] = test system: I3CT1^8098 transgenic line (S30 overexpressing); assay: Root growth-rate inhibition by I3C, transgenic line I3CT1^8098; format: in vivo, Arabidopsis thaliana; settings: I3CT1^8098 (printed I3CR1^8098)
Source text: as §1, with “For root phenotype experiments, plates were placed vertically in the chambers.” left out
(§3) To calculate the percentage of growth inhibition, seeds were germinated on MS containing the following concentrations of I3C: 0, 50, 100, 200, 300, 400, 500 and 750 μM. The root length of the seedlings was measured at days 3, 4, 5, 7 and 10. […]
(§4) To calculate the degree of tolerance to I3C, growth rates of WT and the I3CT1 strains were determined for increasing concentrations of I3C. Root length was measured at several time points over increasing I3C concentrations (FIG. 3). […]

[5] = test system: I3CT1^2 transgenic line (S30 overexpressing); assay: Root growth-rate inhibition by I3C, transgenic line I3CT1^2; format: in vivo, Arabidopsis thaliana; settings: I3CT1^2, root growth rate
Source text: as §1, with “For root phenotype experiments, plates were placed vertically in the chambers.” left out
as §3, §4

[6] = Arabidopsis thaliana, root elongation, Table 3, read-out: substance concentration inhibiting root elongation by 50%
[7] = read-out: I3C concentration at which growth rate was inhibited by 50%
[8] = root elongation, Table 3, read-out: substance concentration inhibiting root elongation by 50%

SMILES | substance concentration inhibiting root elongation by 90% (WT (Col-0) Arabidopsis [1]; root elongation, Table 3) [µM] | tolerance of I3CT1 to the chemical (root growth) (I3CT1 transgenic strains) | IC50 (WT (Col-0) Arabidopsis [1]; [6]) [µM] | IC50 (WT (Col-0) Arabidopsis [1]; [8]) [µM] | further results
O=c1[nH]c2ccccc2o1 [BOA, 2-Benzoxazolinon] | 400 |  |  |  | IC50 (WT (Col-0) Arabidopsis [1]; Arabidopsis thaliana, read-out: substance concentration inhibiting root elongation by 50%): 50 µM
c1ccc2c(Cc3c[nH]c4ccccc34)c[nH]c2c1 [DIM, 3,3′-Diindolylmethane] | 200 | tolerance of the I3CT1 line was limited to three chemicals | 60 |  | 
OCc1c[nH]c2ccccc12 [I3C, Indole 3-carbinol] | 400 | tolerance of the I3CT1 line was limited to three chemicals |  | 100 | inhibition of root elongation (WT (Col-0) Arabidopsis [2]): 95%; inhibition of root elongation by I3C itself (WT (Col-0) Arabidopsis [3]; 500 μM I3C): 95%; rescue of IAA root-elongation inhibition by I3C (WT (Col-0) Arabidopsis [3]; 50 and 200 μM I3C added to IAA, WT): rescues the IAA phenotype; I3C concentration of 90% inhibition [4]: 500 µM; IC50 [4, 7]: 200 µM; I3C concentration of 90% inhibition [5]: 750 µM; IC50 [5, 7]: 300 µM; I3C concentration of 90% inhibition (WT (Col-0) Arabidopsis [1]; WT, root growth rate): 400 µM; IC50 (WT (Col-0) Arabidopsis [1]; WT, root growth rate, read-out: I3C concentration at which growth rate was inhibited by 50%): ~50 µM; I3C concentration of maximum inhibition (WT (Col-0) Arabidopsis [1]; all strains (WT and I3CT1 lines)): 750 µM
O=Cc1c[nH]c2ccccc12 [I3xA, Indole 3-Carboxalldehyde] | 300 | did not exhibit any pronounced tolerance |  | 140 | 
O=C(O)Cc1c[nH]c2ccccc12 [IAA, Indole-3-acetic acid] | 200 | tolerance of the I3CT1 line was limited to three chemicals; also recorded: slight tolerance | 50 |  | 
N#CCc1c[nH]c2ccccc12 [IAN, Indole 3-acetonitril] | 160 | did not exhibit any pronounced tolerance |  | 50 | 
COC(=O)c1c[nH]c2ccccc12 [MI3Cx, Methyl Indole 3-Carboxylate] | 375 | did not exhibit any pronounced tolerance | 200 |  | 
COc1ccc2[nH]c(=O)oc2c1 [mBOA, 6-Methoxy-2-benzoxazolinone] | 400 |  | 50 |  | 
